Results taken from ChEMBL document CHEMBL4834449, “Anti-inflammatory Eudesmane Sesquiterpenoids from Artemisia hedinii” (2021).
Active and inactive are the calls of the source. The rule behind the calls is not given here.

Experiments:
BMDM [1] = assay: Antiinflammatory activity in LPS-induced in C57 mouse BMDM cells assessed as reduction in TNFalpha mRNA expression at 20 uM incubated for 12 hrs by qRT-PCR analysis; format: functional, cell-based
BMDM [2] = assay: Antiinflammatory activity in LPS-induced in C57 mouse BMDM cells assessed as reduction in IL-12 mRNA expression at 20 uM incubated for 12 hrs by qRT-PCR analysis; format: functional, cell-based
BMDM [3] = assay: Antiinflammatory activity in LPS-induced in C57 mouse BMDM cells assessed as reduction in TNFalpha level by ELISA; format: functional, cell-based
BMDM [4] = assay: Antiinflammatory activity in LPS-induced in C57 mouse BMDM cells assessed as reduction in IL-6 level by ELISA; format: functional, cell-based
BMDM [5] = assay: Antiinflammatory activity in LPS-induced in C57 mouse BMDM cells assessed as reduction in IFN-gamma level at 10 to 20 uM by ELISA (Rvb < 7.8 pg/ml); format: functional; conditions: dose 10-20 µM
BMDM [6] = assay: Antiinflammatory activity in LPS-induced in C57 mouse BMDM cells assessed as reduction in IFN-gamma level at 5 to 20 uM by ELISA (Rvb < 7.8 pg/ml); format: functional; conditions: dose 5-20 µM

SMILES | inhibition (BMDM [1]) | inhibition (BMDM [2]) | inhibition (BMDM [3]) | inhibition (BMDM [4]) | Activity (BMDM [5]) | inhibition (BMDM [5]) | Activity (BMDM [6]) | inhibition (BMDM [6])
C=C(C(=O)O)[C@H]1CC2=C(C)C(=O)CC[C@]2(C)[C@@H](O)C1 | Active | Active |  |  |  |  |  | 
CC(=O)O[C@H]1C[C@@H]([C@@](O)(CO)C(=O)O)CC2=C(C)CCC[C@@]21C | Active | Active | Dose-Dependent Effect | Dose-Dependent Effect | <7.8 pg/mL | Dose-Dependent Effect |  | 
C=C(C(=O)O)[C@H]1CC2=C(C)[C@@H](O)CC[C@]2(C)[C@@H](OC(C)=O)C1 | Active | Active |  |  |  |  |  | 
C=C(C(=O)O)[C@@H]1CC[C@@]2(C)CCC[C@@](C)(O)[C@@H]2C1 | Active | Active |  |  |  |  |  | 
C=C(C(=O)O)[C@H]1CC2=C(C)[C@H](OCC)CC[C@]2(C)[C@@H](OC(C)=O)C1 | Active | Active |  |  |  |  |  | 
C=C(C(=O)O)[C@@H]1C[C@H](O)[C@@]2(C)CCCC(=C)[C@]2(O)C1 | Active | Active |  |  |  |  |  | 
C=C(C(=O)O)[C@@H]1C[C@H](OC(C)=O)[C@@]2(C)CCCC(=C)[C@]2(O)C1 | Active | Active | Dose-Dependent Effect | Dose-Dependent Effect |  |  | <7.8 pg/mL | Dose-Dependent Effect
C=C(C(=O)O)[C@H]1CC2=C(C)C(=O)CC[C@]2(C)[C@@H](OC(C)=O)C1 | Active | Active | Dose-Dependent Effect | Dose-Dependent Effect |  |  | <7.8 pg/mL | Dose-Dependent Effect
C=C(C(=O)O)[C@H]1CC2=C(C=O)CCC[C@]2(C)[C@@H](O)C1 | Active | Active |  |  |  |  |  | 
C=C(C(=O)O)[C@H]1CC2=C(C)CCC[C@]2(C)[C@@H](O)C1 | Active | Active | Dose-Dependent Effect | Dose-Dependent Effect | <7.8 pg/mL | Dose-Dependent Effect |  | 
C=C(C(=O)O)[C@H]1CC2=C(CO)CCC[C@]2(C)[C@@H](OC(C)=O)C1 | Active | Active |  |  |  |  |  | 
C=C(C(=O)O)[C@H]1CC2=C(C)[C@H](OC)CC[C@]2(C)[C@@H](OC(C)=O)C1 | Active | Active |  |  |  |  |  | 
CC(=O)O[C@H]1C[C@@H]([C@](O)(CO)C(=O)O)CC2=C(C)CCC[C@@]21C | Active | Active |  |  |  |  |  | 
C=C(C(=O)O)[C@H]1C=C2C(C)=CCC[C@]2(C)[C@@H](OC(C)=O)C1 | Active | Active |  |  |  |  |  | 
C=C(C(=O)O)[C@H]1CC2=C(C(=O)O)CCC[C@]2(C)[C@@H](OC(C)=O)C1 | Active | Active |  |  |  |  |  | 
C=C(C(=O)O)[C@H]1C=C2C(C)=CCC[C@]2(C)[C@@H](O)C1 | Active | Active | Dose-Dependent Effect | Dose-Dependent Effect |  |  | <7.8 pg/mL | Dose-Dependent Effect
C[C@]12CCC(=O)C=C1[C@H](O)[C@H]([C@](C)(O)CO)CC2 | Active | Active | Dose-Dependent Effect | Dose-Dependent Effect |  |  | <7.8 pg/mL | Dose-Dependent Effect
C=C(C(=O)O)[C@@H]1C[C@H](OC(C)=O)[C@@]2(C)CCCC(=C)[C@@]2(O)C1 | Active | Active |  |  |  |  |  | 
C=C(C(=O)O)[C@H]1CC2=C(C)CCC[C@]2(C)[C@@H](OC(C)=O)C1 | Active | Active |  |  |  |  |  | 
C=C(C(=O)O)[C@H]1CC2=C(C)[C@H](O)CC[C@]2(C)[C@@H](OC(C)=O)C1 | Active | Active |  |  |  |  |  | 
